“Also recorded” adds a separate entry of the source.
Assays:
[1] = system: activated Akt; assay: Level of activated Akt in muscle cells, Western immunoblotting; format: cell-based, mouse; details: for FOLD AKT ACTIVATION (OVER CONTROL): 30 minutes; for Akt activity (in words): summary of Table 2
Experimental: (§1) In Vitro Effect of Selected Compounds on Glut-4, activated AMPK, and activated Akt The levels of Glut-4, activated AMPK and activated Akt were measured in mouse muscle cells C2C12 (from ATTC) and in primary culture of human skeletal muscle cells (Clonetics, Inc.) using Western immunoblotting. C2C12 cells were plated at […] cells per mL/well (12-well plate) in standard cell culture medium (DMEM supplemented with 10% fetal bovine serum (FBS), 25 mM glucose, 20 mM Hepes, 4 mM glutamine and 2 mM sodium pyruvate. 48 hrs after the plating, medium was changed to differentiation medium (DMEM supplemented with 5 mM of glucose and 0.5% of FBS) for next 3-4 days to stimulate the formation of myotubes. Three hrs before the treatment with selected agents, cells were washed with PBS and transferred to PBS supplemented with 5 mM of glucose.
(§2) Human skeletal muscle cells (HSKM) were cultured in SKBM-2 mediums provided by Clonetics. 48 hrs after cell plating, medium was changed to SKBM medium to stimulate differentiation of the cells to myotubes. When differentiated, the myotubes were transferred to PBS supplemented with 5 mM glucose for three hrs before the treatment.
(§3) Analysis of C2C12 cells for the level of activated AMPK, Akt and the level of GLUT-4 was performed in the same experimental system. The cells were treated for 30 minutes at 37° C. […] Subsequently, 20 μg per sample of sample protein was used for Western analysis using NuPage 10% Bis/Tris gels (Invitrogen). After exposure of membranes to primary and secondary antibodies AMPK, AKT or Glut-4 was detected using ECL-Plus (Amersham) following producer's instruction. Chemilumiscent signals were detected by using ChemiDoc system from Biorad. Intensity of detected signals were analyzed and measured using Quantity One software (Biorad). Alternatively, the level of phosphorylated AMPK was detected using ECL kit from Amersham and short exposure to Kodak films.
(§4) Experimental setup: Cell Culture was followed by treatment with selected contemplated compounds, which was followed by cell lysis and western blot analysis for AMPK, Akt, GLUT4, total AMPK, and total Akt. Signals were acquired accordingly.

[2] = system: activated AMPK; assay: Level of activated AMPK in muscle cells, Western immunoblotting; format: cell-based, mouse; details: for AMPK activity (in words): summary of Table 1
Experimental: as §1, §2, §3, §4

[3] = Serum level of DHZ in mice after oral or i.p. administration (ELISA); format: in vivo, mouse; details: C57/B1 mice, 100 microgram/dose
Experimental: C57/B1 mice were treated with 100 microgram/dose of dihydrozeatin (DHZ) for 0, 15, 30, 60 and 120 minutes following oral or i.p. administration. Serum level of DHZ in pg/ml was measured using DHZ Elisa following procedures as enclosed in a commercially available test kit (e.g., dihydrozeatin competitive ELISA test system for plant growth hormone detection, Agdia, Elkhard, Ind.). Three animals were used per experimental point.

[4] = system: GLUT-4; assay: GLUT-4 protein level in C2C12 cells, Western immunoblotting; format: cell-based, mouse; details: summary of Table 3
Experimental: as §1
Analysis of C2C12 cells for the level of activated AMPK, Akt and the level of GLUT-4 was performed in the same experimental system. The cells were treated for 30 minutes at 37° C. […] After exposure of membranes to primary and secondary antibodies AMPK, AKT or Glut-4 was detected using ECL-Plus (Amersham) following producer's instruction. Chemilumiscent signals were detected by using ChemiDoc system from Biorad. Intensity of detected signals were analyzed and measured using Quantity One software (Biorad). Alternatively, the level of phosphorylated AMPK was detected using ECL kit from Amersham and short exposure to Kodak films. […]

[5] = system: muscle cells; assay: In vitro myocyte total glucose uptake, fluorescent glucose analog; format: cell-based; details: summary of Table 4
Experimental: Total glucose uptake was measured using fluorescent glucose analog from Molecular Probes. Briefly, muscle cells were treated with kinetin, N^2-Acetyl-Guanosine and N^2-Acetyl-Guanine for 30 minutes at 37 C first and subsequently, these cells were exposed to 500 μM of fluorescent glucose analog for 5 minutes at room temperature. Next, cells were washed twice with cold Krebs-Hepes buffered solution and fixed in 70% ethanol in water. Fluorescence of fluorescent glucose in the cells was measured using fluorescent plate reader at 480/530 nm (excitation/emission). […] Table 4 refers to multiple independent experiments where multiple identical concentrations for the same reagents are indicated.

Q: For `NC(=O)c1ncn([C@@H]2O[C@H](CO)[C@@H](O)[C@H]2O)c1N` [AICAR, 4-Amino-5-imidazolecarboxamide riboside, reference compound], which “FOLD AKT ACTIVATION (OVER CONTROL)” value ([1]; 50.0 microM) is on record?
A: Its value is 2.20 fold.

Q: With `c1ccc(CNc2ncnc3nc[nH]c23)cc1` [Benzyl-Adenine] as the molecule, how does the “FOLD AMPK ACTIVATION (OVER CONTROL)” value ([2]; 5.0 microM, 30 minutes) read?
A: Its value is 2.70 fold.

Q: Which “time over which significant serum concentrations can be maintained” value [3] does the source give for `CC(CO)CCNc1ncnc2nc[nH]c12` (stereo not drawn) [Dihydro-Zeatin, dihydrozeatin] here?
A: Its value is “at least 120 minutes”.

Q: What about the “oral bioavailability (in words)” value ([3]; oral) of the same molecule?
A: The value was “readily bioavailable from the oral route”.

Q: For `CC(C)=CCNc1ncnc2nc[nH]c12` [Gamma, Gamma-Dimethylally-6-Aminopurine], which “FOLD AKT ACTIVATION (OVER CONTROL)” value ([1]; 0.8 microM) is on record?
A: The value was 1.90 fold.

Q: With `Nc1nc2c(ncn2[C@@H]2O[C@H](CO)[C@@H](O)[C@H]2O)c(=O)[nH]1` [Guanosine] as the molecule, how does the “AMPK activity (in words)” value [2] read?
A: The value was “potent activators of AMPK as well as Akt”.

Q: And the “Akt activity (in words)” value [1]?
A: Its value is “potent activators of AMPK as well as Akt”.

Q: Which “AMPK activity (in words)” value [2] does the source give for `c1coc(CNc2ncnc3[nH]cnc23)c1` [Kinetin, kinetin] here?
A: Its value is “more potent compounds”.

Q: What about the “GLUT-4 protein level (in words)” value [4] of the same molecule?
A: Its value is “potently increase GLUT-4 protein level”.

Q: What about the “glucose uptake in muscle cells in vitro (in words)” value [5] of the same molecule?
A: The value was “potently enhance glucose uptake”.

Q: For `CN(C)C(=N)N=C(N)N` [Metformin, reference compound], which “FOLD AKT ACTIVATION (OVER CONTROL)” value ([1]; 20.0 milliM) is on record?
A: Its value is 2.32 fold.

Q: Which results are given for `CC(=O)Nc1nc2nc[nH]c2c(=O)[nH]1` [N^2-Acetyl-Guanine, N2-acetylguanine]?
A: AMPK activity (in words) [2]: potent activators of AMPK as well as Akt; Akt activity (in words) [1]: potent activators of AMPK as well as Akt; GLUT-4 protein level (in words) [4]: potently increase GLUT-4 protein level; glucose uptake in muscle cells in vitro (in words) [5]: potently enhance glucose uptake

Q: For `CC(=O)Nc1nc2c(ncn2[C@@H]2O[C@H](CO)[C@@H](O)[C@H]2O)c(=O)[nH]1` [N^2-Acetyl-Guanosine], which “AMPK activity (in words)” value [2] is on record?
A: Its value is “potent activators of AMPK as well as Akt”.

Q: And the “Akt activity (in words)” value [1]?
A: Its value is “potent activators of AMPK as well as Akt”.

Q: And the “GLUT-4 protein level (in words)” value [4]?
A: The value was “potently increase GLUT-4 protein level”.

Q: And the “glucose uptake in muscle cells in vitro (in words)” value [5]?
A: The value was “potently enhance glucose uptake”.

Q: With `C/C(=C\CNc1ncnc2nc[nH]c12)CO` [Trans-Zeatin] as the molecule, how does the “FOLD AKT ACTIVATION (OVER CONTROL)” value ([1]; 1.0 microM) read?
A: The value was 0.90 fold.

Q: And the “FOLD AKT ACTIVATION (OVER CONTROL)” value ([1]; 10.0 microM)?
A: Its value is 0.86 fold.

Q: For `C/C(=C\CNc1ncnc2[nH]cnc12)CO` [Zeatin], which “AMPK activity (in words)” value [2] is on record?
A: The value was “more potent compounds; also recorded: potent stimulator of AMPK”.

Q: And the “FOLD AKT ACTIVATION (OVER CONTROL)” value ([1]; 1.0 microM)?
A: Its value is 0.95 fold.

Q: And the “Akt activity (in words)” value [1]?
A: The value was “not Akt”.

Q: Which “FOLD AKT ACTIVATION (OVER CONTROL)” value ([1]; 0.10 nanoM) does the source give for “Insulin: Insulin, comparator in the Akt activation test” here?
A: Its value is 1.75 fold.

Q: What about the “FOLD AKT ACTIVATION (OVER CONTROL)” value ([1]; 25.0 nanoM) of the same molecule?
A: Its value is 3.40 fold.

Q: And the “FOLD AKT ACTIVATION (OVER CONTROL)” value ([1]; 50.0 nanoM)?
A: Its value is 3.28 fold.
